Experimental data: patent publication US10287275B2, “16-member triamilide derivatives and uses thereof” (VICTOR PHARMA CO., LTD. ZHENJIANG, priority 2015, dated 2019)
In brackets after ≈: the same amount, converted by molar mass.

Tests used:
Type in all cases: cell-based
[1] = test system: Actinobacillus pleuropneumoniae serotype 1; experiment: Antibacterial MIC, agar-dilution or broth-dilution microtiter test; settings: Strain A: Actinobacillus pleuropneumoniae serotype 1
Procedure: (§1) The MIC's in Table I and Table II were determined by standard agar-dilution assays or broth-dilution microtiter test.

[2] = test system: Actinobacillus pleuropneumoniae serotype 7; experiment: as above; settings: Strain B: Actinobacillus pleuropneumoniae serotype 7
Procedure: as §1

[3] = test system: Escherichia coli 25922 (QC strain); experiment: as above; settings: Strain F: Escherichia coli 25922 (QC strain)
Procedure: as §1

[4] = test system: Escherichia coli IN-F6-7; experiment: as above; settings: INF67; Strain E: Escherichia coli IN-F6-7
Procedure: as §1

[5] = test system: Klebsiella pneumoniae 3699; experiment: as above; settings: Strain K: Klebsiella pneumoniae 3699
Procedure: as §1

[6] = test system: Klebsiella pneumoniae 3753; experiment: as above; settings: Strain J: Klebsiella pneumoniae 3753
Procedure: as §1

[7] = test system: Pasteurella 8217; experiment: as above; settings: Strain C: Pasteurella 8217
Procedure: as §1

[8] = test system: Pasteurella 8229; experiment: as above; settings: Strain D: Pasteurella 8229
Procedure: as §1

[9] = test system: Staphylococcus aureus 29213 (QC strain); experiment: as above; settings: Strain H: Staphylococcus aureus 29213 (QC strain)
Procedure: as §1

[10] = test system: Staphylococcus aureus 5-1; experiment: as above; settings: 51; Strain G: Staphylococcus aureus 5-1
Procedure: as §1

[11] = test system: Streptococcus pneumoniae 2349; experiment: as above; settings: Strain L: Streptococcus pneumoniae 2349
Procedure: as §1

[12] = test system: Streptococcus pneumoniae 49619 (QC strain); experiment: as above; settings: Strain M: Streptococcus pneumoniae 49619 (QC strain)
Procedure: as §1

[13] = test system: salmonella LD4-8; experiment: as above; settings: LD48; Strain I: salmonella LD4-8
Procedure: as §1

[14] = test system: M. gallisepticum BG44T; experiment: Mycoplasma susceptibility testing (MIC); settings: Mycoplasmoides gallisepticum
Procedure: as §1

[15] = test system: M. gallisepticum S6; experiment: Mycoplasma susceptibility testing (MIC); settings: Mycoplasmoides gallisepticum
Procedure: as §1

[16] = test system: M. hyorinis BTS-7; experiment: Mycoplasma susceptibility testing (MIC)
Procedure: as §1

Compound	MIC [1] [µg/mL]	MIC [2] [µg/mL]	MIC [3] [µg/mL]	MIC [4] [µg/mL]	MIC [5] [µg/mL]	MIC [6] [µg/mL]	MIC [7] [µg/mL]	MIC [8] [µg/mL]	MIC [9] [µg/mL]	MIC [10] [µg/mL]	MIC [11] [µg/mL]	MIC [12] [µg/mL]	MIC [13] [µg/mL]	MIC [14] [µg/mL]	MIC [15] [µg/mL]	MIC [16] [µg/mL]
CCCCNC[C@H]1/C=C(C)/C=C/C(=O)[C@H](C)C[C@H](CCN2CCCCC2)[C@H](O[C@@H]2O[C@H](C)[C@@H](O)[C@H](N(C)C)[C@H]2O)[C@@H](C)[C@H](O)CC(=O)O[C@@H]1CC [Compound 4c, (4R,5S,6S,7R,9R,11E,13E,15R,16R)-15-((butylamino)methyl)-6-(((2R,3R,4S,5S,6R)-4-(dimethylamino)-3,5-dihydroxy-6-methyltetrahydro-2H-pyran-2-yl)oxy)-16-ethyl-4-hydroxy-5,9,13-trimethyl-7-(2-(piperidin-1-yl)ethyl)oxacyclohexadeca-11,13-diene-2,10-dione]	64 (≈ 88.6 µM)	128 (≈ 177 µM)	16 (≈ 22.2 µM)	16 (≈ 22.2 µM)	> 256	128 (≈ 177 µM)	4 (≈ 5.54 µM)	4 (≈ 5.54 µM)	64 (≈ 88.6 µM)	> 256	2 (≈ 2.77 µM)	256 (≈ 355 µM)	32 (≈ 44.3 µM)	7.82 (≈ 10.8 µM)	15.6 (≈ 21.6 µM)	31.2 (≈ 43.3 µM)
CC[C@H]1OC(=O)C[C@@H](O)[C@H](C)[C@@H](O[C@@H]2O[C@H](C)[C@@H](O)[C@H](N(C)C)[C@H]2O)[C@@H](CCN2CCCCC2)C[C@@H](C)C(=O)/C=C/C(C)=C/[C@@H]1CN(CCO)CCO [Compound 4g, (4R,5S,6S,7R,9R,11E,13E,15R,16R)-15-((bis(2-hydroxyethyl)amino)methyl)-6-(((2R,3R,4S,5S,6R)-4-(dimethylamino)-3,5-dihydroxy-6-methyltetrahydro-2H-pyran-2-yl)oxy)-16-ethyl-4-hydroxy-5,9,13-trimethyl-7-(2-(piperidin-1-yl)ethyl)oxacyclohexadeca-11,13-diene-2,10-dione]	256 (≈ 340 µM)	256 (≈ 340 µM)	256 (≈ 340 µM)	256 (≈ 340 µM)	> 256	> 256	< 0.12	32 (≈ 42.4 µM)	128 (≈ 170 µM)	> 256	32 (≈ 42.4 µM)	> 256	128 (≈ 170 µM)	–	–	–
CC[C@H]1OC(=O)C[C@@H](O)[C@H](C)[C@@H](O[C@@H]2O[C@H](C)[C@@H](O[C@H]3C[C@@](C)(O)[C@@H](O)[C@H](C)O3)[C@H](N(C)C)[C@H]2O)[C@@H](CC=O)C[C@@H](C)C(=O)/C=C/C(C)=C/[C@@H]1CO[C@@H]1O[C@H](C)[C@@H](O)[C@@H](OC)[C@H]1OC [Tylosin, reference compound]	16 (≈ 17.5 µM)	8 (≈ 8.73 µM)	256 (≈ 279 µM)	256 (≈ 279 µM)	> 256	> 256	32 (≈ 34.9 µM)	32 (≈ 34.9 µM)	2 (≈ 2.18 µM)	> 256	< 0.12	2 (≈ 2.18 µM)	> 256	< 0.12	< 0.12	1.95 (≈ 2.13 µM)
CC[C@H]1OC(=O)C[C@@H](O)[C@H](C)[C@@H](O[C@@H]2O[C@H](C)[C@@H](O)[C@H](N(C)C)[C@H]2O)[C@@H](CCN2CCCCC2)C[C@@H](C)C(=O)/C=C/C(C)=C/[C@@H]1CN1CCCC1 [Compound 4d, (4R,5S,6S,7R,9R,11E,13E,15R,16R)-6-(((2R,3R,4S,5S,6R)-4-(dimethylamino)-3,5-dihydroxy-6-methyltetrahydro-2H-pyran-2-yl)oxy)-16-ethyl-4-hydroxy-5,9,13-trimethyl-7-(2-(piperidin-1-yl)ethyl)-15-(pyrrolidin-1-ylmethyl)oxacyclohexadeca-11,13-diene-2,10-dione]	> 256	> 256	> 256	> 256	> 256	> 256	256 (≈ 356 µM)	128 (≈ 178 µM)	256 (≈ 356 µM)	> 256	64 (≈ 88.9 µM)	> 256	> 256	–	–	–
